Reference: US8759360B2, “Purine compounds” (Eli Lilly and Company, priority 2010, dated 2014)
Structures can show the parent of a compound that is named as a salt. Where two headings read alike, the source gives them in different places.

Legend:
male Lewis rats = experiment: Monoiodoacetate (MIA) model, incapacitance testing; format: in vivo; conditions: rat, single dose
Protocol: For all studies male Lewis rats of approximately 8 weeks of age at the time of MIA injection are used to measure pain in the MIA model. The rats are housed in groups of 2 or 3 per cage and maintained in a constant temperature and on a 12 hour light/12 hour dark cycle. Animals have free access to food and water at all times except during data collection.
In the standard MIA model the right knees of each rat are injected with 0.3 mg MIA in 50 ul of saline and the left knees with 50 ul of saline. Pain is measured at varying times after MIA injection (not normally before 10 day post MIA injection) using incapacitance testing. This measures the difference in hind paw weight bearing between the MIA and saline injected knees, and each measurement is the average of 3 separate measurements each measured over 1 second.
For studies with CB2 agonists rats are randomized into dose groups (n=5 or 6) and then dosed once with the compound under investigation. Dosing is staggered by 15 minutes for each rat and at a predetermined time post-dose (usually 2 hours), pain measured using incapacitance testing. Studies are routinely run with 4 groups, vehicle (1% carboxy methyl cellulose in water plus 0.25% polysorbate 80) and 3 compound groups which can be either single compounds at a single dose or the same compound at 3 doses. Results are reported as the difference in weight bearing between saline and MIA injected knees and statistical comparisons are made between vehicle treated and compound treated animals to assess the effect of compounds on knee pain in the model.

hCB2 [1] = target: T1, hCB2 (Homo sapiens, UniProt P34972); experiment: CB2 in vitro functional assay (SPA based GTP-γ-35S binding, agonist mode); format: biochemical
T1 sequence (P34972 whole entry): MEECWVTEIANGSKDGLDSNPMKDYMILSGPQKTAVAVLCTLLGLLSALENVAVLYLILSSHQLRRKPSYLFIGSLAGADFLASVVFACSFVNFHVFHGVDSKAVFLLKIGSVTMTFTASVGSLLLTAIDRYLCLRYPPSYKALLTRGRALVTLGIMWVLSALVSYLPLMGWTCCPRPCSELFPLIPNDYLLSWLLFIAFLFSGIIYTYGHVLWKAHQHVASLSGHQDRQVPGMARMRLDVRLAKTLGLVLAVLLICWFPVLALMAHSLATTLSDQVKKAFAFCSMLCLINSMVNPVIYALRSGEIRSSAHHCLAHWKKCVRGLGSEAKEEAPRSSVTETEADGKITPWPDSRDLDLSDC
Protocol: (§1) Exemplified compounds are tested in agonist mode using a SPA based GTP-γ-^35S binding assay. All assay components are prepared in assay buffer made up of 20 mM HEPES, 100 mM NaCl, 5 mM MgCl2, (pH 7.4 at room temperature). Semi-log compound dilutions are done in assay buffer containing BSA (final 0.125%). GTP-γ^35-S binding is measured in a 96 well format using a whole membrane capture technique for the CB1 assay and modifications of an antibody capture technique previously described (DeLapp et al. J Pharmacol Exp Ther 289:946-955, 1999) for the CB2 assay. All incubations are done at room temperature.
hCB2-Sf9 membranes and GDP (1 uM final) are added to assay buffer and homogenized. Diluted compounds and membranes are added to the assay plate and pre-incubated for 15 minutes. This is followed by addition of GTP-γ-^35S ([…] final) and another 35 minute incubation. Next a mixture containing Nonidet P40 detergent (0.2% final), anti-Gi antibody (final dilution of 1:362), and 1.25 mg anti-rabbit antibody scintillation proximity assay beads are added. The plates are then sealed, vortexed, and incubated for an additional 2 hours before centrifuging and counting as for CB1.
To analyze data, first subtract background from all wells. Determine percent agonist efficacy by normalizing agonist/inverse agonist dose response data to a full agonist (methanandamide) response. […]

hCB1 = target: T2, hCB1 (Homo sapiens, UniProt P21554); experiment: CB1 in vitro functional assay (SPA based GTP-γ-35S binding, agonist mode); format: biochemical
T2 construct: expressed in transfected cells; host or cells: CHO cells (membranes)
T2 sequence (P21554 whole entry): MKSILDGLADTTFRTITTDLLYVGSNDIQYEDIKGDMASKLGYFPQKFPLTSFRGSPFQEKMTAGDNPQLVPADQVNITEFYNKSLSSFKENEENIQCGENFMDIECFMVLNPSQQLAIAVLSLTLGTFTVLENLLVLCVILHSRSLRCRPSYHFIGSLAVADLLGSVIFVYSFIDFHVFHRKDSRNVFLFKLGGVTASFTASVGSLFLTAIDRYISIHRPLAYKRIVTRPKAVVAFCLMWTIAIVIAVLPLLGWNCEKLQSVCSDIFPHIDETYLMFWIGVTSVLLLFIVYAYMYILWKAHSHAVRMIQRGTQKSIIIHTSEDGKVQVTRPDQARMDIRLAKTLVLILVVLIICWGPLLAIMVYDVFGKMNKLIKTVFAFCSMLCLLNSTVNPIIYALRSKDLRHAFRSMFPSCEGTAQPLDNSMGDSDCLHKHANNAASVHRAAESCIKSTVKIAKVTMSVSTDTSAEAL
Protocol: as §1
hCB1-CHO membranes, GDP (1 uM final), and saponin (10 ug/mL final) are added to assay buffer and homogenized. Diluted compounds, GTP-γ-^35S (500 nM final) and membranes are added to the assay plate and incubated for 30 minutes. Then 1 mg/well Wheatgerm Agglutinin SPA bead is added, and the plates are sealed, vortexed, and incubated for an additional hour. Plates are then centrifuged at 700×g for 10 minutes and counted for 1 minute per well using a scintillation counter.
To analyze data, first subtract background from all wells. Determine percent agonist efficacy by normalizing agonist/inverse agonist dose response data to a full agonist (methanandamide) response. Analyze the data using a 4-parameter logistic reduced fit with Activity Base and XLFit3.

[2] = test system: Male Harlan Sprague Dawley rats; experiment: Chemotherapy-induced pain assay (paclitaxel, von Frey); format: in vivo, rat; conditions: for Mean paw withdrawal latencies (mean ± SE): 1 hour post-dose, n of 12
Protocol: Male Harlan Sprague Dawley rats 150-200 grams are acclimated to the vivarium for 7 days. The animals are maintained in a constant temperature and on a 12 hour light/12 hour dark cycle, and housed in groups of 3-4 with water and food ad libitum. Twice daily dosing of compound at 10 mg/kg (oral), morphine at 5 mg/kg, and vehicle commences on Day 1 of the study, and continues through the duration of the study (Day 18). Paclitaxel at 1 mg/kg (intraperitoneal) is administered on Days 2, 4, 6, and 8, for a cumulative dose of 4 mg/kg in order to induce chemotherapy-induced peripheral neuropathy.
Rats are placed in individual plexiglass chambers with a wire mesh platform bottom to allow access to the hindpaw. After an acclimation period of 15 minutes to 1 hour, the mid-plantar hind paws are assessed within the sciatic nerve distribution. A series of 8 von Frey hairs with logarithmically incremental stiffness (0.41, 0.70, 1.20, 2.00, 3.63, 5.50, 8.50, and 15.10 g) are applied to the hind paws. The von Frey hairs are presented perpendicular to the plantar surface with sufficient force to cause slight bending. Stimuli are presented at intervals of several seconds. A positive response is noted if the paw is sharply withdrawn or if flinching immediately upon removal of the hair is observed. On study days, behavioral endpoints are evaluated 1 hour post-dose. Score patterns are evaluated using the Dixon up-down method, and translated to a response threshold (1980, Ann Rev Pharmacol Toxicol 20:441-462). The maximum applied force is 15.10 grams. The initial behavior assessment occurs on Day 10 of the study, and subsequent measures are made on Study Days 12, 15, and 18.
Results are expressed as mean values with standard errors of the mean (mean±SE) for an n of 12 per group. All statistical evaluations are conducted utilizing a one-way ANOVA followed by comparison to the control group by Dunnett's Method. Statistical significance is assumed when p<0.05. Statistical analyses are performed using JMP statistical analysis software (SAS Research Institute, version 6.0.2).

[3] = Dose-ranging toxicity study in beagle dogs; format: in vivo, dog; conditions: both sexes, beagle, dog, 30 mg/kg single oral dose, plasma
Protocol: (§2) One male and one female beagle dog are used to evaluate the acute toxicity after a single oral gavage dose of CB2 agonist. The dogs are housed individually and maintained in a constant temperature and on a 12 hour light/12 hour dark cycle. CB2 agonist is prepared in vehicle (1% hydroxyethylcellulose, 0.25% polysorbate 80, and 0.05% Dow Corning® Antifoam 1510-US in purified water) and administered by oral gavage at a dose volume of 2 mL/kg. Dogs are observed for mortality and clinical observations (before dosing, 2 hours postdose, in the afternoon and daily thereafter). Food consumption is assessed by daily visual assessment of food remaining. Blood is collected before dosing and 48 hours after dosing to evaluate effects on haematology and clinical chemistry parameters. Blood is collected at 0.5, 1, 2, 4, 8, and 24 hours postdose to evaluate toxicokinetic plasma drug concentrations.

beagle dog = experiment: Dose-ranging toxicity study in beagle dogs; format: in vivo; conditions: single oral dose of 30 mg/kg
Protocol: as §2

rat CB2 receptor = target: T3, rat CB2 receptor (Rattus norvegicus, UniProt Q9QZN9); experiment: Displacement of 3H-CP55940 from rat CB2 receptors; format: binding
T3 construct: expressed in transfected cells
T3 sequence (Q9QZN9 1-360): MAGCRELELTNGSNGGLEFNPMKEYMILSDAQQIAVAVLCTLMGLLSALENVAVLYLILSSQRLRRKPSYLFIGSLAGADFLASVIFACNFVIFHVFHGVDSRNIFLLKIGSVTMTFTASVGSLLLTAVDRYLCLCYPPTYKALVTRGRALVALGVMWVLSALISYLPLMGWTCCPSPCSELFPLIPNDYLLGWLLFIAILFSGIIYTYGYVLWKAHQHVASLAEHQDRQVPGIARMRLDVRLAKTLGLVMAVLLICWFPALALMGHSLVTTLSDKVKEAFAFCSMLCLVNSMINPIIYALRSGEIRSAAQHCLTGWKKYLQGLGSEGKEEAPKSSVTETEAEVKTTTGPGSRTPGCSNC
Protocol: (§3) The methods of Felder et al. (Mol. Pharmaocol. 48:443-450, 1995) were utilized with minor modifications. Specifically, membrane homogenates from cells stably or transiently expressing the human or rat CB2 receptor were washed by centrifugation and diluted into a 50 mM Tris HCl (pH 7.4), 5 mM MgCl2, 2.5 mM EDTA, and 0.1% BSA buffer. Specific binding of 3H-CP55940 was defined with 1 μM CP55940. The ability of compounds to displace specific 3H-CP55940 binding was tested over a range of concentrations in the Tris, MgCl2, EDTA, BSA buffer in the presence of 1% dimethyl sulfoxide by incubating at room temperature for 90 minutes in a volume of 300 μl. Unifilter 96-well microplates pretreated with 0.5% polyvinylpyrrolidone, 0.1% polysorbate 20 in water were washed three times with cold Tris buffer. The reaction mixture was then transferred to the filter plate immediately before terminating the incubation by rapid filtration and three 200 μl washes with cold Tris buffer. After the filter plates dried, microscint 20 was added to each well, the plate sealed and counted for determination of disintegrations per minute. The displacement curves were graphed and the resulting Ki values determined utilizing Graphpad Prism.

hCB2 [4] = target: T1, hCB2; experiment: Displacement of 3H-CP55940 from human CB2 receptors; format: binding; design: expressed in transfected cells; conditions: 3H-CP55940 displacement
Protocol: as §3

Question: With `Cc1nc(N2CCN(C)CC2)c2nc(-c3ccccc3Cl)n(C(C)CO)c2n1.Cl` (single isomer, unassigned; isomer 1) [Example 18, 2-[8-(2-Chloro-phenyl)-2-methyl-6-(4-methyl-piperazin-1-yl)-purin-9-yl]-propan-1-ol hydrochloride, Isomer 1] as the compound, how does the “pain versus vehicle (difference in hind paw weight bearing)” value (male Lewis rats; dose of 0.3 mg/kg) read?
Answer: The value was “reduce pain versus vehicle”.

Question: With `Cc1nc(N2CCN(C)CC2)c2nc(-c3ccccc3Cl)n(C(C)CO)c2n1.Cl` (single isomer, unassigned; isomer 2) [Example 19, 2-[8-(2-Chloro-phenyl)-2-methyl-6-(4-methyl-piperazin-1-yl)-purin-9-yl]-propan-1-ol hydrochloride, Isomer 2] as the compound, how does the EC50 (hCB2 [1]; agonist mode, hCB2-Sf9 membranes, read-out: relative EC50 value for CB2) read?
Answer: Its EC50 is 22.4 nM.

Question: What about the EC50 (hCB1; agonist mode, hCB1-CHO membranes, read-out: relative EC50 value for CB1) of the same compound?
Answer: The EC50 was greater than 100000 nM.

Question: What about the “pain versus vehicle (difference in hind paw weight bearing)” value (male Lewis rats; dose of 0.3 mg/kg) of the same compound?
Answer: Its value is “reduce pain versus vehicle”.

Question: What about the “pain versus vehicle (difference in hind paw weight bearing)” value (male Lewis rats; dose of 1 mg/kg) of the same compound?
Answer: The value was “reduce pain versus vehicle”.

Question: What about the “allodynia compared to both vehicle and morphine-treated animals” value ([2]; 10 mg/kg oral twice daily, over the duration of the study (Day 18)) of the same compound?
Answer: Its value is “developed less allodynia”.

Question: And the “Mean paw withdrawal latencies (mean ± SE)” value ([2]; Day 10, 10 mg/kg oral twice daily)?
Answer: Its value is 11.25 ± 1.31.

Question: What about the “Mean paw withdrawal latencies (mean ± SE)” value ([2]; Day 12, 10 mg/kg oral twice daily) of the same compound?
Answer: Its value is 7.38 ± 0.95.

Question: And the “Mean paw withdrawal latencies (mean ± SE)” value ([2]; Day 15, 10 mg/kg oral twice daily)?
Answer: Its value is 7.90 ± 1.04.

Question: What about the “Mean paw withdrawal latencies (mean ± SE)” value ([2]; Day 18, 10 mg/kg oral twice daily) of the same compound?
Answer: The value was 6.02 ± 0.72.

Question: And the AUC(0-t) ([3]; read-out: mean Area-Under the Curve from 0-24 hours (AUC0-24hr))?
Answer: Its AUC(0-t) is 44500 ng·h/mL.

Question: What about the Cmax ([3]; read-out: mean maximum concentration (Cmax)) of the same compound?
Answer: The Cmax was 7540 ng/mL.

Question: And the faeces (beagle dog; female dog)?
Answer: Its faeces is “Decreased faeces”.

Question: And the food consumption (beagle dog; female dog)?
Answer: Its food consumption is “minimal decreased food consumption”.

Question: What about the “decrease in reticulocyte count, change relative to pre-dose” value (beagle dog; female dog, 48 hours after dosing) of the same compound?
Answer: Its value is 39%.

Question: What about the Post-dose clinical observations (beagle dog; one male and one female dog) of the same compound?
Answer: Its Post-dose clinical observations is “limited to vomiting and dilated pupils”.

Question: Which EC50 (hCB2 [1]) does the source give for `COCCCn1c(-c2ccccc2Cl)nc2c(N3CCN(CCF)CC3)nc(C)nc21` [Example 6, 8-(2-Chlorophenyl)-6-[4-(2-fluoroethyl)piperazin-1-yl]-9-(3-methoxypropyl)-2-methyl-purine hydrochloride] here?
Answer: Its EC50 is 2.7 nM.

Question: And the EC50 (hCB1)?
Answer: Its EC50 is greater than 100000 nM.

Question: With `COC(C)(C)Cn1c(-c2ccccc2Cl)nc2c(N3CCN(C(C)=O)CC3)nc(C)nc21` [Example 8, 1-[4-[8-(2-Chlorophenyl)-9-(2-methoxy-2-methyl-propyl)-2-methyl-purin-6-yl]piperazin-1-yl]ethanone] as the compound, how does the Ki (rat CB2 receptor) read?
Answer: Its Ki is 37.5 nM.

Question: What about the Ki (hCB2 [4]) of the same compound?
Answer: Its Ki is 142 nM.

Question: Which Ki (rat CB2 receptor; 3H-CP55940 displacement, rat CB2, read-out: rat receptor Ki value) does the source give for `CC(=O)N1CCN(c2nc(C)nc3c2nc(-c2ccccc2Cl)n3CC(C)(C)O)CC1` [Example 13, 1-[4-[8-(2-Chlorophenyl)-9-(2-hydroxy-2-methyl-propyl)-2-methyl-purin-6-yl]piperazin-1-yl]ethanone hydrochloride] here?
Answer: Its Ki is 215 nM.

Question: What about the Ki (hCB2 [4]) of the same compound?
Answer: Its Ki is 65.2 nM.

Question: With `CN1CC[C@]23c4c5ccc(O)c4O[C@H]2[C@@H](O)C=C[C@H]3[C@H]1C5` [Morphine, reference compound] as the compound, how does the “Mean paw withdrawal latencies (mean ± SE)” value ([2]; Day 10, 5 mg/kg twice daily) read?
Answer: The value was 8.16 ± 1.22.

Question: And the “Mean paw withdrawal latencies (mean ± SE)” value ([2]; Day 12, 5 mg/kg twice daily)?
Answer: Its value is 3.67 ± 0.30.

Question: What about the “Mean paw withdrawal latencies (mean ± SE)” value ([2]; Day 15, 5 mg/kg twice daily) of the same compound?
Answer: Its value is 3.84 ± 0.45.

Question: And the “Mean paw withdrawal latencies (mean ± SE)” value ([2]; Day 18, 5 mg/kg twice daily)?
Answer: The value was 3.46 ± 0.42.
